# In ChEMBL document CHEMBL4354843, “Structure-Based Design of a Potent and Selective Covalent Inhibitor for SRC Kinase That Targets a P-Loop Cysteine” (J Med Chem, 2020):
# Key:
# [1] = molecular target: Fibroblast growth factor receptor 1 (Homo sapiens, UniProt P11362); experiment: Inhibition of recombinant human His-tagged FGFR1 (308 to 731 residues) expressed in baculovirus expression system using tyrosine-4 peptide as substrate incubated for 1 hr by Z'-LYTE assay
# [2] = molecular target: Proto-oncogene tyrosine-protein kinase Src (Homo sapiens, UniProt P12931); experiment: Inhibition of recombinant human His-tagged full length SRC expressed in baculovirus expression system using tyrosine-2 peptide as substrate incubated for 1 hr by Z'-LYTE assay
# [3] = molecular target: T1, Mitogen-activated protein kinase kinase kinase 7 (Homo sapiens, UniProt O43318); experiment: Inhibition of tracer 222 binding to recombinant human His-tagged TAK1 (437 to 504 residues) expressed in baculovirus expression system […] incubated for 60 mins by Lanthascreen assay
# T1 sequence (O43318 whole entry): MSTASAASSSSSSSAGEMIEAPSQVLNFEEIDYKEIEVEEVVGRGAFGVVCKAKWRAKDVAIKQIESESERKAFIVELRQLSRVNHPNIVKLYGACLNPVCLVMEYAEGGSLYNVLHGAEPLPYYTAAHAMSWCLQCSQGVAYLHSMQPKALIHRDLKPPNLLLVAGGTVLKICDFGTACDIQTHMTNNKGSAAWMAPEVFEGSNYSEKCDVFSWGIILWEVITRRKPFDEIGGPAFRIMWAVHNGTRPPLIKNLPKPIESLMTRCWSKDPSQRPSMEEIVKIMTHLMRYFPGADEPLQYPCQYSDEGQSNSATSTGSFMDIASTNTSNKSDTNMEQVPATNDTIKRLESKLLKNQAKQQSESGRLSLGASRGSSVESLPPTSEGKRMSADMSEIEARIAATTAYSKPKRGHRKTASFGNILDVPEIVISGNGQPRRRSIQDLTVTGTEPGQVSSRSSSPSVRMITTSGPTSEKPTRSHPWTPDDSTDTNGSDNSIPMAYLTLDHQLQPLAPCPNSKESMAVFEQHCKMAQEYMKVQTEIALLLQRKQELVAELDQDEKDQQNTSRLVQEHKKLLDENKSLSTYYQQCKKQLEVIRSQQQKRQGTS
# Fibroblast growth factor receptor 1, sequence (P11362 whole entry, the tested form may be a part): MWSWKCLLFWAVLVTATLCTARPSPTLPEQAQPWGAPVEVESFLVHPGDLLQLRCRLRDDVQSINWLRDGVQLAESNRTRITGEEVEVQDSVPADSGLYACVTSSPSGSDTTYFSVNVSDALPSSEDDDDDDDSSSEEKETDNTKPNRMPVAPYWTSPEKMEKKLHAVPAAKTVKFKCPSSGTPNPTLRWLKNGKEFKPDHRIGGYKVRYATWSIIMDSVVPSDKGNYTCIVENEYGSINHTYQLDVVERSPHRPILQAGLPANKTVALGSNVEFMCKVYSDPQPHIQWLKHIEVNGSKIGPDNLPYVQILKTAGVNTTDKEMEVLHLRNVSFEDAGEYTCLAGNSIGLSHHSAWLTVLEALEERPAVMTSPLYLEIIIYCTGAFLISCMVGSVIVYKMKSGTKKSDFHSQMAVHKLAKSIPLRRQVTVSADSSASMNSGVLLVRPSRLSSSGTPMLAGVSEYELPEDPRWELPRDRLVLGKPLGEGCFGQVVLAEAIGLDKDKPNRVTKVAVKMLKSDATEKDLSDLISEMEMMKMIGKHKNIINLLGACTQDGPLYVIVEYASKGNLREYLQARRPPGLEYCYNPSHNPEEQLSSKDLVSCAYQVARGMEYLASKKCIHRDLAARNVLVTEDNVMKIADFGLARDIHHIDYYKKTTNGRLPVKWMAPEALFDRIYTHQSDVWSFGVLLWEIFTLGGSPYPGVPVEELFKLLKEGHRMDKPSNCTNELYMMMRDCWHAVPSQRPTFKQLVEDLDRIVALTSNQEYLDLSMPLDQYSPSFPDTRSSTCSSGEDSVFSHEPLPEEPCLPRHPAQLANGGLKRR
# Proto-oncogene tyrosine-protein kinase Src, sequence (P12931 2-536 limits assumed): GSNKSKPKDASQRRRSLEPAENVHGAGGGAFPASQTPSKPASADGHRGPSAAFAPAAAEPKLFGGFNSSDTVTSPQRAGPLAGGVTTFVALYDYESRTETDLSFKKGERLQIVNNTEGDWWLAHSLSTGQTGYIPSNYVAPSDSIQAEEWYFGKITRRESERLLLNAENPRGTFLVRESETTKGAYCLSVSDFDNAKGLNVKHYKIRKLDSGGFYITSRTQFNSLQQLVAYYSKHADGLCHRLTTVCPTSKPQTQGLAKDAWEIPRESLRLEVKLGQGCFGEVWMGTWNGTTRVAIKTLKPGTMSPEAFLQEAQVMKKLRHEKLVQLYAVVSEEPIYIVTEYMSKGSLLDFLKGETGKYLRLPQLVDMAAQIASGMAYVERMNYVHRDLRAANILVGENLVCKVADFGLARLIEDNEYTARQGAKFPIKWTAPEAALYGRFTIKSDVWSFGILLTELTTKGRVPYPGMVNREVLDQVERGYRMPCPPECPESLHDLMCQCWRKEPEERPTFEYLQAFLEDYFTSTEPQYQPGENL
IC50 [1] [nM],IC50 [2] [nM],IC50 [3] [nM],SMILES
> 10000,–,–,C=CC(=O)Nc1ccccc1Nc1nc(Nc2ccc(N3CCN(C)CC3)cc2)ncc1C(=O)Nc1ccccc1CC
17,3,543,C=CC(=O)Nc1ccccc1Nc1nc(Nc2ccc(N3CCN(C)CC3)cc2)ncc1-c1cccs1
72,6,1490,C=CC(=O)Nc1ccccc1Nc1nc(Nc2ccc(N3CCN(C)CC3)cc2)ncc1-c1ccc(C(C)=O)cc1
391,–,–,C=CC(=O)Nc1ccccc1Nc1nc(Nc2ccc(N3CCN(C)CC3)cc2)ncc1C(=O)Nc1c(Cl)c(OC)cc(OC)c1Cl
> 10000,–,–,C=CC(=O)Nc1ccccc1Nc1nc(Nc2ccc(N3CCN(C)CC3)cc2)ncc1C(=O)Nc1c(C)cc(C#N)cc1Cl
89,5,5460,C=CC(=O)Nc1ccccc1Nc1nc(Nc2ccc(N3CCN(C)CC3)cc2)ncc1-c1ccc(Oc2ccccc2)cc1
–,> 10000,–,C=CC(=O)Nc1ccccc1Nc1nc(Nc2ccc(N3CCC(N4CCN(C)CC4)CC3)cc2)ncc1C(=O)Nc1c(C)cccc1Cl
> 10000,> 3330,–,C=CC(=O)Nc1ccccc1Nc1nc(Nc2ccc(N3CCN(C)CC3)cc2)ncc1C(=O)Nc1ccc(Oc2ccccc2)cc1
373,3,–,C=CC(=O)Nc1ccccc1Nc1nc(Nc2ccc(N3CCN(C)CC3)cc2)ncc1OCc1c(C)cccc1Cl
> 10000,–,–,C=CC(=O)Nc1ccccc1Nc1nc(Nc2ccc(N3CCN(C)CC3)cc2)ncc1C(=O)Nc1c(C)cc(Cl)cc1Cl
> 3330,–,–,C=CC(=O)Nc1ccccc1Nc1nc(Nc2ccc(N3CCN(C)CC3)cc2)ncc1C(=O)Nc1c(C)cc(C)cc1Cl

# Further lines, the compound ahead of its results:
SMILES,IC50 [1] [nM],IC50 [2] [nM],IC50 [3] [nM]
C=CC(=O)Nc1ccccc1Nc1nc(Nc2ccc(N3CCN(C)CC3)cc2)ncc1C(=O)Nc1cc(C)cc(Cl)c1,> 10000,–,–
C=CC(=O)Nc1ccccc1Nc1nc(Nc2ccc(N3CCN(C)CC3)cc2)ncc1OCc1ccc(C)cc1,119,5,–
C=CC(=O)Nc1ccccc1Nc1nc(Nc2ccc(N3CCN(C)CC3)cc2)ncc1Cl,54,4,–
C=CC(=O)Nc1ccccc1Nc1nc(Nc2ccc(N3CCN(C)CC3)cc2)ncc1-c1ccoc1,12,2,224
C=CC(=O)Nc1ccccc1Nc1nc(Nc2ccc(N3CCN(C)CC3)cc2)ncc1OCc1ccc(Oc2ccccc2)cc1,1050,6,–
C=CC(=O)Nc1ccccc1Nc1nc(Nc2ccc(N3CCN(C)CC3)cc2)ncc1C(=O)Nc1cc(OC)c(OC)cc1C,6710,–,–
C=CC(=O)Nc1ccccc1Nc1nc(Nc2ccc(N3CCN(C)CC3)cc2)ncc1-c1ccc(OC)nc1,20,6,1890
